# Measured values published in the NIST ThermoML archive (doi:10.1016/j.jct.2017.07.011).
# Numbers after ± are expanded uncertainties.
# Details: 100 kPa, Liquid, Vibrating tube method
mass density (273.65 K) [kg/m3],mass density (274.15 K) [kg/m3],mass density (274.65 K) [kg/m3],mass density (275.15 K) [kg/m3],mass density (275.65 K) [kg/m3],mass density (276.15 K) [kg/m3],mass density (276.65 K) [kg/m3],mass density (277.15 K) [kg/m3],mass density (277.65 K) [kg/m3],mass density (278.15 K) [kg/m3],mass density (278.65 K) [kg/m3],mass density (279.15 K) [kg/m3],mass density (279.65 K) [kg/m3],mass density (280.15 K) [kg/m3],mass density (280.65 K) [kg/m3],mass density (281.15 K) [kg/m3],mass density (281.65 K) [kg/m3],mass density (282.15 K) [kg/m3],Structure (SMILES)
835.7 ± 2.1,835.3 ± 2.1,834.9 ± 2.1,834.5 ± 2.1,834.1 ± 2.1,833.7 ± 2.1,833.3 ± 2.1,832.9 ± 2.1,832.5 ± 2.1,832.1 ± 2.1,831.7 ± 2.1,831.3 ± 2.1,830.9 ± 2.1,830.5 ± 2.1,830.1 ± 2.1,829.7 ± 2.1,829.3 ± 2.1,828.9 ± 2.1,CCC(O)CC [3-pentanol]
824 ± 2.1,823.6 ± 2.1,823.2 ± 2.1,822.8 ± 2.1,822.5 ± 2.1,822.1 ± 2.1,821.7 ± 2.1,821.3 ± 2.1,820.9 ± 2.1,820.6 ± 2.1,820.2 ± 2.1,819.8 ± 2.1,819.4 ± 2.1,819.1 ± 2.1,818.7 ± 2.1,818.3 ± 2.1,817.9 ± 2.1,817.5 ± 2.1,CCCC(C)O (centres undefined) [pentan-2-ol]

Structure (SMILES),mass density (273.65 K) [kg/m3],mass density (274.15 K) [kg/m3],mass density (274.65 K) [kg/m3],mass density (275.15 K) [kg/m3],mass density (275.65 K) [kg/m3],mass density (276.15 K) [kg/m3],mass density (276.65 K) [kg/m3],mass density (277.15 K) [kg/m3],mass density (277.65 K) [kg/m3],mass density (278.15 K) [kg/m3],mass density (278.65 K) [kg/m3],mass density (279.15 K) [kg/m3],mass density (279.65 K) [kg/m3],mass density (280.15 K) [kg/m3],mass density (280.65 K) [kg/m3],mass density (281.15 K) [kg/m3],mass density (281.65 K) [kg/m3],mass density (282.15 K) [kg/m3]
CCC(C)(C)O [2-methylbutan-2-ol],826.7 ± 2,826.3 ± 2,825.8 ± 2,825.4 ± 2,824.9 ± 2,824.5 ± 2,824 ± 2,823.5 ± 2,823.1 ± 2,822.6 ± 2,822.2 ± 2,821.7 ± 2,821.3 ± 2,820.8 ± 2,820.3 ± 2,819.9 ± 2,819.4 ± 2,819 ± 2
